Test results taken from ChEMBL document CHEMBL1144936, “Orally active oxime derivatives of the dopaminergic prodrug 6-(N,N-di-n-propylamino)-3,4,5,6,7,8-hexahydro-2H-naphthalen-1-one. Synthesis and pharmacological activity” (J Med Chem, 2003).
Activity calls are given as the source filed them. The calls are words filed in the database; no cut-off is given here.

Key:
Rattus norvegicus [1] = assay: Effect of compound on total full contralateral turns at the dose of 10 mg/Kg administered perorally in ungerstedt rat model; […]; assay type: functional, organism-based
Rattus norvegicus [2] = assay: Effect of compound on total full contralateral turns at the dose of 0.3 mg/Kg administered perorally in ungerstedt rat model; assay type: functional
Rattus norvegicus [3] = assay: Effect of compound on total full contralateral turns at the dose of 1.0 mg/Kg administered perorally in ungerstedt rat model; assay type: functional
D(1A) dopamine receptor = D(1A) dopamine receptor (Rattus norvegicus, UniProt P18901); assay: In vitro binding affinity towards Dopamine receptor D1
Sequence of D(1A) dopamine receptor (P18901 whole entry): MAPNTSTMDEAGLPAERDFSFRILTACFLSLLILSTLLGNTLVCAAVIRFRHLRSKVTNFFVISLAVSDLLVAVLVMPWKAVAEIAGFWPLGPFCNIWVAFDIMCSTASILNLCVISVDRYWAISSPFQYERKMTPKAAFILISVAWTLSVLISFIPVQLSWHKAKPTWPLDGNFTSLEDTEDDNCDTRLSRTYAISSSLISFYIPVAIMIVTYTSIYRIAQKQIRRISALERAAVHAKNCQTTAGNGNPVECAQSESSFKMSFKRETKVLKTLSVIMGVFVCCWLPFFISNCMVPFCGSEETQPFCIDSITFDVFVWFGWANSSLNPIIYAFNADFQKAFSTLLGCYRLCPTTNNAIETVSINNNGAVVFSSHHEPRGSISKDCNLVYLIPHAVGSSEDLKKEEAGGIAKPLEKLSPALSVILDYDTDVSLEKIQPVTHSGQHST

D(2) dopamine receptor [4] = target: D(2) dopamine receptor (Rattus norvegicus, UniProt P61169); assay: In vitro binding affinity towards Dopamine receptor D2
Sequence of D(2) dopamine receptor (Rattus norvegicus, UniProt P61169) (P61169 whole entry): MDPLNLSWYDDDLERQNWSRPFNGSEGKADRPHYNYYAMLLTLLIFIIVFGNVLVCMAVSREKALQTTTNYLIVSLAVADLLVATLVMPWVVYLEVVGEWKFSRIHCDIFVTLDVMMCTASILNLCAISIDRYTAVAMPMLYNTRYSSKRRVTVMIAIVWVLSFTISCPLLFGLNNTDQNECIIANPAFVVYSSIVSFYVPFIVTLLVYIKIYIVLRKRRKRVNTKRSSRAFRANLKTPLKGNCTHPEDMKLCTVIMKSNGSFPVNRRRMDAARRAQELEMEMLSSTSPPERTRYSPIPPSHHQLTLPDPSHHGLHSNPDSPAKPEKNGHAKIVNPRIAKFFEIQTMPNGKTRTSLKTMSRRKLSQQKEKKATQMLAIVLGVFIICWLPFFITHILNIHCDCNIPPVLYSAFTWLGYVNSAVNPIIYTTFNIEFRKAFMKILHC

Rattus norvegicus [5] = assay: Effect of compound on total full contralateral turns at the dose of 10 mg/Kg administered perorally in ungerstedt rat model; assay type: functional
D(2) dopamine receptor [6] = target: D(2) dopamine receptor (Homo sapiens, UniProt P14416); assay: Tested for percent intrinsic activity towards Dopamine receptor D2 in CHO cells; assay type: cell-based
Sequence of D(2) dopamine receptor (Homo sapiens, UniProt P14416) (P14416 whole entry): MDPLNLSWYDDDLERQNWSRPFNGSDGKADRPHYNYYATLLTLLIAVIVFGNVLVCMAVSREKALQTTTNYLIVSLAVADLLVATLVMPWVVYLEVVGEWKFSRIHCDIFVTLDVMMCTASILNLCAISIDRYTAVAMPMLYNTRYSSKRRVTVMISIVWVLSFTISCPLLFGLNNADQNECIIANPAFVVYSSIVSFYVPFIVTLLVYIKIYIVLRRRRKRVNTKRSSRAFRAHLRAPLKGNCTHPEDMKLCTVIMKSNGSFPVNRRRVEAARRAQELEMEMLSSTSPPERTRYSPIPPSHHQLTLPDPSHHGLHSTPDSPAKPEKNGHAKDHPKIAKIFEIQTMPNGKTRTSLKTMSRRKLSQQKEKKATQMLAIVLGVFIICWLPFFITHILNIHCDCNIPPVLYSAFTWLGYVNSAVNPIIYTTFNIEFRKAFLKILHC

SMILES	Turns (Rattus norvegicus [2])	Turns (Rattus norvegicus [3])	further results
CCCN(CCC)C1CCC2=C(CCC/C2=N\OC(=O)c2ccc(C)cc2)C1 (stereo unspecified)			Turns (Rattus norvegicus [1]): inactive
CCCN(CCC)[C@H]1CCC2=C(CCC/C2=N\OC(C)=O)C1	2007		
CCCN(CCC)C1CCC2=C(CCC/C2=N\OC(=O)C(C)(C)C)C1 (stereo unspecified)	187		
CCCN(CCC)C1CCC2=C(CCC/C2=N\OC(=O)c2ccccc2)C1 (stereo unspecified)		2208	
CCCN(CCC)C1CCc2c(ccc(O)c2O)C1 (racemic)			Ki (D(1A) dopamine receptor): 0.17 µM; Ki (D(2) dopamine receptor [4]): 0.003 µM
CCCN(CCC)[C@H]1CCC2=C(CCC/C2=N\OC)C1			Turns (Rattus norvegicus [5]): 2014
CCCO/N=C1\CCCC2=C1CCC(N(CCC)CCC)C2 (stereo unspecified)	943	5406	
CCCN(CCC)C1CCC2=C(CCC/C2=N\OC(C)=O)C1 (stereo unspecified)	365		
CCCN(CCC)C1CCC2=C(CCC/C2=N\OC(=O)C(C)C)C1 (stereo unspecified)	152		
CCCCO/N=C1\CCCC2=C1CCC(N(CCC)CCC)C2 (stereo unspecified)		1364	
CCCN(CCC)C1CCC2=C(CCC/C2=N\OC)C1 (racemic)	1007	5295	EC50 (D(2) dopamine receptor [6]): > 1 µM; Ki (D(2) dopamine receptor [4]): 2.3 µM
CCCN(CCC)C1CCC2=C(CCC/C2=N\OCC)C1 (stereo unspecified)	176	4217	
CCCN(CCC)C1CCC2=C(CCC/C2=N\OC(C)(C)C)C1 (stereo unspecified)		2118	
CCCN(CCC)C1CCC2=C(CCC/C2=N\OCc2ccccc2)C1 (stereo unspecified)	1652	4702	
